Assays:
BTK = BTK (Homo sapiens (Human), UniProt Q06187); assay: in vitro kinase binding assay (Kd, phage-tagged kinase, qPCR)
Method: (§1) An in vitro assay which determines the ability of a test compound to inhibit EGFR (L858R), EGFR (L858R,T790M) and BTK kinases.
(§2) Kinase-tagged T7 phage strains were prepared in an E. coli host derived from the BL21 strain. E. coli were grown to log-phase and infected with T7 phage and incubated with shaking at 32° C. until lysis. The lysates were centrifuged and filtered to remove cell debris. The remaining kinases were produced in HEK-293 cells and subsequently tagged with DNA for qPCR detection. Streptavidin-coated magnetic beads were treated with biotinylated small molecule ligands for 30 minutes at room temperature to generate affinity resins for kinase assays. The liganded beads were blocked with excess biotin and washed with blocking buffer (SeaBlock (Pierce), 1% BSA, 0.05% Tween 20, 1 mM DTT) to remove unbound ligand and to reduce non-specific binding. Binding reactions were assembled by combining kinases, liganded affinity beads, and test compounds in 1× binding buffer (20% SeaBlock, 0.17×PBS, 0.05% Tween 20, 6 mM DTT). All reactions were performed in polystyrene 96-well plates in a final volume of 0.135 ml. The assay plates were incubated at room temperature with shaking for 1 hour and the affinity beads were washed with wash buffer (1×PBS, 0.05% Tween 20). The beads were then re-suspended in elution buffer (lx PBS, 0.05% Tween 20, 0.5 μM non-biotinylated affinity ligand) and incubated at room temperature with shaking for 30 minutes. The kinase concentration in the eluates was measured by qPCR.
(§3) An 11-point 3-fold serial dilution of each test compound was prepared in 100% DMSO at 100× final test concentration and subsequently diluted to 1× in the assay (final DMSO concentration=1%). Kds were determined using a compound top concentration=10,000 nM. If the initial Kd determined was <0.5 nM (the lowest concentration tested), the measurement was repeated with a serial dilution starting at a lower top concentration.
(§4) Binding constants (Kds) were calculated with a standard dose-response curve using the Hill equation: Response=Background+(Signal−Background)/(1+(Kd^Hill Slope/Dose^Hill Slope)). The Hill Slope was set to −1. Curves were fitted using a non-linear least square fit with the Levenberg-Marquardt algorithm.

EGFR (L858R,T790M) = EGFR (L858R,T790M) (Homo sapiens (Human), UniProt P00533, L858R/T790M); assay: as above
EGFR (L858R,T790M), sequence (P00533 25-1210 T790M/L858R): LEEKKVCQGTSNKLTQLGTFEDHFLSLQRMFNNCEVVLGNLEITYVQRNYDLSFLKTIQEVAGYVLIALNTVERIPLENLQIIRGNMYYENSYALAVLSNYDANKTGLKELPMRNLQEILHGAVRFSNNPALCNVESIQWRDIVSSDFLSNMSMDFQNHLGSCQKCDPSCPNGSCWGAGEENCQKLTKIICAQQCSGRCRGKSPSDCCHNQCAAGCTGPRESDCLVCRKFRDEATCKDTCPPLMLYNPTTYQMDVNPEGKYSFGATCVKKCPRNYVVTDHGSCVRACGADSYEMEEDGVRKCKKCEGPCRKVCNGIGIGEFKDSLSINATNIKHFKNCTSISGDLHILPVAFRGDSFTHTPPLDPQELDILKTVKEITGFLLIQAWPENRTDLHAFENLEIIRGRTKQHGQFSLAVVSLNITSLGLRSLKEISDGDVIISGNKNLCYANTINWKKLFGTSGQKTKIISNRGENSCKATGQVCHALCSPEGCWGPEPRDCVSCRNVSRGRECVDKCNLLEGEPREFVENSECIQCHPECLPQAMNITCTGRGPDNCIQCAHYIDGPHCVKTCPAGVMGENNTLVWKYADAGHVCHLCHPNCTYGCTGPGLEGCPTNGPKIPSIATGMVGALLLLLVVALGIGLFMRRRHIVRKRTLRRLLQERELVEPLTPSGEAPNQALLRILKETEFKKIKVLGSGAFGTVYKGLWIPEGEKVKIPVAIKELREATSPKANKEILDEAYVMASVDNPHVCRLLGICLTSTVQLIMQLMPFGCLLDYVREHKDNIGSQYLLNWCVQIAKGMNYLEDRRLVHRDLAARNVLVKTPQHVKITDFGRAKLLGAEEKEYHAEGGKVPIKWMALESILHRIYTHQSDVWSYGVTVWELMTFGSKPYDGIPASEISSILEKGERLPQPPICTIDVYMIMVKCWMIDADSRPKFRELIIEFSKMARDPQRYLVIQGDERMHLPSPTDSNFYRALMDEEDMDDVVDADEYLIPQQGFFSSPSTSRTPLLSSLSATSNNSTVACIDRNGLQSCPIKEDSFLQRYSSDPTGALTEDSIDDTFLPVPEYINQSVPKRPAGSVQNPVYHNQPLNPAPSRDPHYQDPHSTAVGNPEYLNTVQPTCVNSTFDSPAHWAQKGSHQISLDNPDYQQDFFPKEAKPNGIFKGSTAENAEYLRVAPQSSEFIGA
Method: as §1, §2, §3, §4

EGFR (L858R) = EGFR (L858R) (Homo sapiens (Human), UniProt P00533, L858R); assay: as above
EGFR (L858R), sequence (P00533 25-1210 L858R): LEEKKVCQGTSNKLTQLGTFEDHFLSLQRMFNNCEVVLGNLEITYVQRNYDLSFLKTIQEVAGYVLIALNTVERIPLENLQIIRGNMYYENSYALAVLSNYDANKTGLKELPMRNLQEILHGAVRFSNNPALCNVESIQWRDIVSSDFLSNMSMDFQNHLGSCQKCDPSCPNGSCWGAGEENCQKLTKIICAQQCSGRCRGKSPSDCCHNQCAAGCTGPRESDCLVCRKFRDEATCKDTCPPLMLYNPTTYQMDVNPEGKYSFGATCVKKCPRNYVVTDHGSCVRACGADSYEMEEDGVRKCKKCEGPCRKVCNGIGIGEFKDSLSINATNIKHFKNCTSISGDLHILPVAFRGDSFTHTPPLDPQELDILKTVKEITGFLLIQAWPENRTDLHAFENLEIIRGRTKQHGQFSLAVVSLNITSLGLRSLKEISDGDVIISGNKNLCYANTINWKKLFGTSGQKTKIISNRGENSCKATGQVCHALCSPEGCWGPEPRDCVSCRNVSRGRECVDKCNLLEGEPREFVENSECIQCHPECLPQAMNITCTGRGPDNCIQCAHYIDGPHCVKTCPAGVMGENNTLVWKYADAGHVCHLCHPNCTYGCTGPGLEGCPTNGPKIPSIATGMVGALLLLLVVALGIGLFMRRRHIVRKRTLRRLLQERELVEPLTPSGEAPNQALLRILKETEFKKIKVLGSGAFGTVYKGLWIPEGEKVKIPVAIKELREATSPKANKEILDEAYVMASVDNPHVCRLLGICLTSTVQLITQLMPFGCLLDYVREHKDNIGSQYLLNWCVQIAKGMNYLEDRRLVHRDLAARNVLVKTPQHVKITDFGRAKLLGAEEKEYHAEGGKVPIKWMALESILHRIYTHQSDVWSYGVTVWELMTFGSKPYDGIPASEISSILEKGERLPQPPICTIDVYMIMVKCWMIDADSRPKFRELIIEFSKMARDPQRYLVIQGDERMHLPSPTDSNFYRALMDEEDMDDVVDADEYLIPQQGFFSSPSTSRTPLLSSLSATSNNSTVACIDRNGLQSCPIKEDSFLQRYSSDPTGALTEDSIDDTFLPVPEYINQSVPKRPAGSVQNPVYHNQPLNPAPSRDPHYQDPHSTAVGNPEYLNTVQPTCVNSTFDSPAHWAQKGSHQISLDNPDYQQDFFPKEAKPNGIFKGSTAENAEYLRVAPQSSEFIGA
Method: as §1, §2, §3, §4

[1] = tested on: cancer cell line NCI-H1975; assay: NCI-H1975 cell proliferation assay (MTT); format: cell-based; conditions: Homo sapiens, NCI-H1975 cells, 72 hours treatment
Method: A representative number of compounds were assayed against cancer cell line NCI-H1975 using the cell proliferation assay:
1. 5×10^3 cells per well in 100 μl of medium were seeded in 96-well plate, here the medium contained 5% FBS
2. 24 hours later, 100 μl fresh medium was added with various concentrations of compounds into each well, while the medium here was free of FBS
3. After the cells were treated with compounds for 72 hours, 20 μl MTT (5 mg/ml) was added into each well, and then the assay plate was incubated at 37° C. for 4 more hours.
4. The assay plate was centrifuged at 800 g for 10 min. The medium was aspirated, 150 μl DMSO was added into each well. The plate was gently shaked for 10 min.
5. The absorbance at 570 nm was measured on the plate reader.

BTK, sequence (Q06187 whole entry): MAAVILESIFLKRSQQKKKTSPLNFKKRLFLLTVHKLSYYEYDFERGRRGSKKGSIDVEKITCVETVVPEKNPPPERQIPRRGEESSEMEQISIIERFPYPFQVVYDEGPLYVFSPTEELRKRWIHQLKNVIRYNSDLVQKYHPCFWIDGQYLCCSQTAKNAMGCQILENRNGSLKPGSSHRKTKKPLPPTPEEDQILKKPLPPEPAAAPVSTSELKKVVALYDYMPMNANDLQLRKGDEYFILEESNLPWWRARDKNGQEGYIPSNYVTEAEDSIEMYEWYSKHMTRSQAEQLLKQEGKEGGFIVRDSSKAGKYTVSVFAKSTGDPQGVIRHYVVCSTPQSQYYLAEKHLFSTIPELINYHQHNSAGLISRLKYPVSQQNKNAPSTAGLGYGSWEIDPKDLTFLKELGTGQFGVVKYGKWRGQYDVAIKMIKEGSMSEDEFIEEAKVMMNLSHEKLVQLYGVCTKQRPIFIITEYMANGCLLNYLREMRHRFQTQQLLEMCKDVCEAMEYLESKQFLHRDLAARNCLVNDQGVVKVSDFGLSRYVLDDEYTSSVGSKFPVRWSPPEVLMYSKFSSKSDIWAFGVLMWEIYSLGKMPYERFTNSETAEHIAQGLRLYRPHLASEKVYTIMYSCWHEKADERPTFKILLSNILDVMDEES

Kd (BTK) [nM] | Kd (EGFR (L858R,T790M)) [nM] | Kd (EGFR (L858R)) [nM] | IC50 [1] [nM] | Structure (SMILES)
< 10 | 270 | 54 |  | C=CC(=O)N1CCC[C@@H](n2nc(-c3ccc(Oc4ccc(F)cc4)cc3)c3c(N)ncnc32)C1 [Compound 17, (R)-1-(3-(4-amino-3-(4-(4-fluorophenoxy)phenyl)-1H-pyrazolo[3,4-d]pyrimidin-1-yl)piperidin-1-yl)prop-2-en-1-one]
< 10 | 9.3 | 6.3 | 494 | C=CC(=O)N1CCC[C@@H](n2nc(-c3ccc(Oc4ccccc4)c(Cl)c3)c3c(N)ncnc32)C1 [Compound 18, (R)-1-(3-(4-amino-3-(3-chloro-4-phenoxyphenyl)-1H-pyrazolo[3,4-d]pyrimidin-1-yl)piperidin-1-yl)prop-2-en-1-one]
 |  |  | > 2000 | C=CC(=O)N1CCC[C@@H](n2nc(-c3ccc(Oc4ccccc4)cc3)c3c(N)ncnc32)C1 [Ibrutinib, reference compound]

Source: patent US9694011B2, “Substituted pyrazolopyrimidines as kinases inhibitors” (JIANGSU MEDOLUTION LTD, priority 2013, dated 2017)
